This passage reports IC50 results from PMC7105820, “Mutant ACVR1 Arrests Glial Cell Differentiation to Drive Tumorigenesis in Pediatric Gliomas” (Cancer Cell, 2020).

This test concerns the target T1, ACVR1 (Homo sapiens, UniProt Q04771).
T1 sequence (Q04771 21-509): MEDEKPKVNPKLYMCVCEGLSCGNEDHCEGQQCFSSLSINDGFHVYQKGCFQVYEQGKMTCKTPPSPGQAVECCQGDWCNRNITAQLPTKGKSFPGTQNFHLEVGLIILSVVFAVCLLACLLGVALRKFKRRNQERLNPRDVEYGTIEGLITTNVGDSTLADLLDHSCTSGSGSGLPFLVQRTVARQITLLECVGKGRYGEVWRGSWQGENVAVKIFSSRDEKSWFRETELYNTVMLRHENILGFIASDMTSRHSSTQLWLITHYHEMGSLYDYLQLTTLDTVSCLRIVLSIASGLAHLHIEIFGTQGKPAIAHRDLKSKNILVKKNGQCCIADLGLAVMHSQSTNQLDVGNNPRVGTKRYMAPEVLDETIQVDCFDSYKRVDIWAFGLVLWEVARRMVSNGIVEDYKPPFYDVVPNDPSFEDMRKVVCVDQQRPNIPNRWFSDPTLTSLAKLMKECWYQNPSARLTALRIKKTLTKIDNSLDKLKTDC
Description: ([…] Å) of the ACVR1-FKBP12 complex; IC50 from cellular NanoBRET target engagement (HEK-293). The format is cell-based. On the technique in general: In BRET a luciferase serves as donor, and the signal depends on an acceptor being close.

As usually defined, the IC50 is the concentration needed to halve the response being measured. Turning to `CCNc1cc(O)c2c(c1)/C=C/C[C@H](O)[C@H](O)C(=O)/C=C\[C@@H](C)[C@H](C)OC2=O` [E6201, (3S,4R,5Z,8S,9S,11E)-14-(ethylamino)-8,9,16-trihydroxy-3,4-dimethyl-3,4,9,19-tetrahydro-1H-2-benzoxacyclotetradecine-1,7 (8H)-dione], the IC50 is approximately 250 nM.
